We go through 4 compounds from publication PMC6683251, “Flavanol Bioavailability in Two Cocoa Products with Different Phenolic Content. A Comparative Study in Humans” (Nutrients, 2019).

Data set [1] is described as follows: Plasma nutrikinetics of flavanol metabolites after a single serving of soluble cocoa product (HPLC-ESI-QToF-MS). Type of data set: in vivo, human. The note with it: for AUC / Tmax / Cmax: both sexes, oral, mean ± SD, n = 13; for AUC: human plasma 0-8 h, read-out: AUC; for Tmax / Cmax: human plasma; for Tmax: read-out: Tmax; for Cmax: read-out: Cmax. As to the method: The study was carried out in thirteen healthy subjects (3 men and 10 women); the mens’ average age and body mass index were 26.67 ± 3.21 year and 22.47 ± 2.97 kg/m^2, respectively, and womens’ were 32.60 ± 9.85 year and 23.36 ± 3.73 kg/m^2, respectively. They were non-smoker, non-vegetarian, non-pregnant women, who were not taking any medication or nutritional supplements, and were not suffering from any chronic pathology or gastrointestinal disorder. The sample size was estimated attending to similar previous bioavailability studies. The volunteers gave their informed consent prior to participation.
The present randomized, single-blind study was carried out at the Human Nutrition Unit (HNU) of the Institute of Food Science, Technology and Nutrition (ICTAN). Volunteers attended the HNU on two days, separated by two weeks. Three days previous to each visit, participants were instructed not to consume cocoa products (chocolate, soluble cocoa, etc.), juices, tea, wine, grape must, oranges, tangerines, apples, grapes, strawberries or other berries, beets, onions, soybeans and soy derivatives. In addition, volunteers were asked to complete a 24 h food intake recall the day before they attended the HNU in order to monitor any possible food restriction incompliance.
On each intervention day, volunteers arrived at the HNU after an overnight fast. Prior to the intake of the soluble cocoa product, a nurse inserted a cannula in the cubital vein of the non-prevailing arm of the volunteers and blood samples were collected into EDTA-coated tubes at baseline (t = 0) and 0.5, 1, 2, 3, 4, 6, and 8 h after consuming the corresponding cocoa product. The soluble cocoa products, either 15 g of CC or 25 g CC-PP, were dissolved in 200 mL of semi-skimmed milk following manufacturer’s preparation instructions. Plasma was separated by centrifugation (10 min, 3000 rpm, 4 °C) and stored at −80 °C until further analysis. Urine samples were collected at different time intervals (t = −2–0, 0–4, 4–8, 8–12, and 12–24 h) in urine collection flasks that contained 0.5 g of ascorbic acid as preservative and were aliquoted and frozen at −20 °C until analysis. A polyphenol-free breakfast, lunch and afternoon snack were provided 2 h, 4 h, and 8 h after consumption of cocoa products, and water and isotonic beverages were available ad libitum.
A liquid–liquid extraction and protein precipitation with acetonitrile was used to isolate metabolites from plasma. A 1 mL defrosted plasma sample was mixed with 50 μL of ascorbic acid (0.2 g/mL). After vortexing the aqueous mixture, it was added drop wise to 750 μL of cold acetonitrile and vortexed for 2 min before centrifuging at 12,000 rpm for 10 min at 4 °C. The supernatant was separated, and the pellet was re-extracted twice more following the same procedure. Supernatants were combined and reduced to dryness under a stream of nitrogen at 30 °C. The dried samples were resuspended in 150 μL of aqueous formic acid (0.1%) containing 10% acetonitrile acidified with 0.1% formic acid and centrifuged at 4 °C for 20 min at 14,000 rpm. The final supernatant was collected, filtered (0.45 μm pore-size, cellulose-acetate membrane filters, Albet, Dassel (Germany)) and 30 μL were analyzed by high-performance liquid chromatography coupled to electrospray ionisation and quadrupole time-of-flight mass spectrometry (HPLC-ESI-QToF-MS).
Analyses were performed on an Agilent 1200 series LC system coupled to an Agilent 6530A Accurate-Mass Quadrupole Time-Of-Flight (Q-ToF) with ESI-Jet Stream Technology (Agilent Technologies). Compounds were separated on a reverse-phase Ascentis Express C18 (15 cm × 3 mm, […]) column (Sigma-Aldrich Química, Madrid) preceded by a Supelco 55215-U guard column at 30 °C. […]

Data set [2] in a line: Urinary excretion of flavanol metabolites (0-24 h) after a single serving of soluble cocoa product (HPLC-ESI-QToF-MS). Type of data set: in vivo, human. The note with it: for Excreted in urine, Total: 24 h urine; for Excreted in urine, Total / Excreted in urine, 0–4 h / Excreted in urine, 4–8 h / Excreted in urine, 8–12 h / Excreted in urine, 12–24 h / Excreted in urine, Basal: mean ± SD, n = 13; for Excreted in urine, Basal: basal urine (−2–0 h, before intake). As to the method:
They were non-smoker, non-vegetarian, non-pregnant women, who were not taking any medication or nutritional supplements, and were not suffering from any chronic pathology or gastrointestinal disorder. The sample size was estimated attending to similar previous bioavailability studies. The volunteers gave their informed consent prior to participation.
The present randomized, single-blind study was carried out at the Human Nutrition Unit (HNU) of the Institute of Food Science, Technology and Nutrition (ICTAN). Volunteers attended the HNU on two days, separated by two weeks. Three days previous to each visit, participants were instructed not to consume cocoa products (chocolate, soluble cocoa, etc.), juices, tea, wine, grape must, oranges, tangerines, apples, grapes, strawberries or other berries, beets, onions, soybeans and soy derivatives.
On each intervention day, volunteers arrived at the HNU after an overnight fast. […] The soluble cocoa products, either 15 g of CC or 25 g CC-PP, were dissolved in 200 mL of semi-skimmed milk following manufacturer’s preparation instructions. Plasma was separated by centrifugation (10 min, 3000 rpm, 4 °C) and stored at −80 °C until further analysis. […] A polyphenol-free breakfast, lunch and afternoon snack were provided 2 h, 4 h, and 8 h after consumption of cocoa products, and water and isotonic beverages were available ad libitum.
Urine samples were diluted with an equivalent volume of Milli-Q water (50%) and centrifuged at 14000 rpm (10 min, 4 °C). Supernatants were filtered (0.45 μm pore-size cellulose-acetate membrane filters) and a 5 µL aliquot was directly injected into the LC-ESI-QToF-MS equipment.
The test samples, either 30 μL of the plasma extract or 5 μL of diluted urine, were injected and separated using a mobile phase consisting of Milli-Q water (phase A) and acetonitrile (phase B), both containing 0.1% formic acid, at a flow rate of 0.3 mL/min. The mobile phase was initially programmed with 90% of solvent A and 10% of B. The elution program increased to 30% of solvent B in 10 min. Then, the initial conditions (10% solvent B) were recovered in 5 min and maintained for 5 min.
Due to the lack of standards for certain phase II metabolites, they were tentatively quantified using the calibration curves of their corresponding phenolic precursors. […] The rest of microbial metabolites identified, derivatives of hydroxyphenylpropionic, hydroxyphenylacetic, hydroxybenzoic and hippuric acids, were quantified using their respective commercially available standards. Urine concentration of the excreted metabolites was normalized by the volume excreted in each studied interval. […] Calibration curves were freshly prepared in a pool of both plasma and urine due to matrix effects.
Statistical analyses were carried out using the program SPSS (version 23.0, SPSS, Inc., IBM Company, New York, NY, USA). Significant differences between metabolites excreted in urine after consumption of CC and CC-PP cocoa products were evaluated based on non-parametric Wilcoxon test (p < 0.05). To determine the absorption and elimination of epicatechin metabolites after consumption of the soluble cocoa products, metabolite nutrikinetics were studied using the pharmacokinetic functions of Microsoft Excel, calculating the maximum concentration (Cmax), area under curve (AUC) and time to reach maximum concentration (Tmax). Data are expressed as mean ± standard deviation.

[3] abbreviates: 19.8 mg, after CC (19.80 mg flavanols).
The mark [4] stands for this setting: after CC-PP (68.25 mg flavanols).
The mark [5] stands for this setting: after CC (15 g in 200 mL semi-skimmed milk, 19.80 mg flavanols).
The mark [6] stands for this setting: after CC-PP (25 g in 200 mL semi-skimmed milk, 68.25 mg flavanols).

Where two headings read alike, the source gives them in different places. Bounds are passed on as bounds.

As for `O=C(O)C1OC(Oc2cc(C3Oc4cc(O)cc(O)c4CC3O)ccc2O)C(O)C(O)C1O` (stereo not shown) [Epicatechin-3′-glucuronide], in data set [1] (setting [3]), the AUC stood at 72 ± 28 nM·h and the Tmax was 1.5 ± 0.5 h. For the same compound, in data set [1] (setting [4]), the AUC turned out to be 110 ± 66 nM·h and the Tmax came out at 1.4 ± 0.8 h. For the same compound, the maximum concentration (Cmax) in data set [1] (setting [5]) was 0.025 ± 0.001 µM. For the same compound, the Cmax in data set [1] (setting [6]) stood at 0.037 ± 0.001 µM. Also, in data set [2] (after CC (19.80 mg flavanols)), the “Excreted in urine, Total” value is 0.622 ± 0.130 µmol; the “Excreted in urine, 0–4 h” value worked out at 0.355 ± 0.071 µmol; the “Excreted in urine, 4–8 h” value is listed as 0.267 ± 0.059 µmol; the “Excreted in urine, 8–12 h” value is given as “<L.Q”. The “Excreted in urine, 12–24 h” value in data set [2] (after CC (19.80 mg flavanols)) is “<L.Q”. Further, in data set [2] (setting [4]), the “Excreted in urine, Total” value is given as 1.653 ± 0.462 µmol; the “Excreted in urine, 0–4 h” value was determined as 0.958 ± 0.272 µmol; the “Excreted in urine, 4–8 h” value is 0.695 ± 0.190 µmol; the “Excreted in urine, 8–12 h” value was “<L.Q”. The “Excreted in urine, 12–24 h” value in data set [2] (setting [4]) was “<L.Q”.

`Oc1cc(O)c2c(c1)O[C@H](c1ccc(O)c(O)c1)[C@H](O)[C@H]2c1c(O)cc(O)c2c1O[C@H](c1ccc(O)c(O)c1)[C@H](O)C2` [PB2 dimer, procyanidin B2]: in data set [1] (plasma and urine, CC and CC-PP), the “Detection of un-metabolized compound in the collected biological fluids” value is “Neither un-metabolized epicatechin and catechin nor procyanidins B1 and B2 were detected”. Moreover, in data set [2] (any of the interventions (CC, CC-PP)), the “Detection of un-metabolized compound in urine” value is listed as “Neither epicatechin nor PB2 dimer was detected in urine”.

As for `COc1cc([C@H]2Oc3cc(O)cc(OS(=O)(=O)O)c3C[C@H]2O)ccc1O` (single isomer, unassigned) [Epicatechin-methoxy-sulfate (isomer 1), Epicatechin-methoxy-sulfate], in data set [1] (setting [3]), the AUC came out at 122 ± 25 nM·h and the Tmax was determined as 1.3 ± 0.6 h. In data set [1] (setting [4]), the AUC is 173 ± 107 nM·h and the Tmax stood at 1.1 ± 0.6 h. Moreover, the Cmax in data set [1] (setting [5]) was 0.031 ± 0.003 µM. In addition, in data set [1] (setting [6]), the Cmax was found to be 0.041 ± 0.002 µM. In data set [2] (after CC (19.80 mg flavanols)), the “Excreted in urine, Total” value worked out at 4.428 ± 0.800 µmol; the “Excreted in urine, 0–4 h” value was determined as 2.717 ± 0.457 µmol; the “Excreted in urine, 4–8 h” value amounted to 1.300 ± 0.197 µmol; the “Excreted in urine, 8–12 h” value amounted to 0.154 ± 0.031 µmol. Further, in data set [2] (after CC (19.80 mg flavanols)), the “Excreted in urine, 12–24 h” value was 0.257 ± 0.114 µmol. In addition, in data set [2] (setting [4]), the “Excreted in urine, Total” value is 12.481 ± 2.243 µmol; the “Excreted in urine, 0–4 h” value is 8.642 ± 1.434 µmol; the “Excreted in urine, 4–8 h” value is on record as 3.277 ± 0.644 µmol; the “Excreted in urine, 8–12 h” value was 0.330 ± 0.095 µmol. Also, the “Excreted in urine, 12–24 h” value in data set [2] (setting [4]) came to 0.232 ± 0.070 µmol.

For the compound `O=C1CCC(Cc2ccc(O)c(O)c2)O1` (stereo not shown) [DHPVL, 5-(3′,4′-Dihydroxyphenyl)-γ-valerolactone], in data set [1] (setting [3]), the AUC was found to be 124 ± 73 nM·h and the time of peak concentration (Tmax) came out at 6 ± 1.6 h. Besides, in data set [1] (setting [4]), the AUC is 192 ± 29 nM·h and the Tmax was determined as 5.5 ± 1.4 h. Moreover, in data set [1] (setting [5]), the highest concentration (Cmax) was 0.035 ± 0.008 µM. The maximum concentration (Cmax) in data set [1] (setting [6]) amounted to 0.037 ± 0.007 µM. In addition, in data set [2] (CC intervention), the “Excreted in urine, Basal” value was “<L.Q”. In data set [2] (CC-PP intervention), the “Excreted in urine, Basal” value is “<L.Q”. Also, in data set [2] (after CC (19.80 mg flavanols)), the “Excreted in urine, Total” value is listed as 0.146 ± 0.032 µmol; the “Excreted in urine, 0–4 h” value is “<L.Q”; the “Excreted in urine, 4–8 h” value turned out to be 0.146 ± 0.032 µmol; the “Excreted in urine, 8–12 h” value is recorded as “<L.Q”. In addition, the “Excreted in urine, 12–24 h” value in data set [2] (after CC (19.80 mg flavanols)) is recorded as “<L.Q”. Further, in data set [2] (setting [4]), the “Excreted in urine, Total” value was determined as 1.084 ± 0.199 µmol; the “Excreted in urine, 0–4 h” value is “<L.Q”; the “Excreted in urine, 4–8 h” value is 0.628 ± 0.087 µmol; the “Excreted in urine, 8–12 h” value amounted to 0.174 ± 0.029 µmol. In addition, the “Excreted in urine, 12–24 h” value in data set [2] (setting [4]) is recorded as 0.282 ± 0.082 µmol.

As usually defined, the AUC is the area under the concentration-time curve, a measure of exposure. In general, Tmax refers to the time from dosing to the highest level. By Cmax is commonly meant the peak of the concentration-time curve.
